Experimental data as given in US5962469A, “Cyclic nitrones” (Hoechst Marion Roussel Inc., priority 1997, dated 1999).

What was measured:
Cerebellar Granule Cells [1] = test: Protection of cerebellar granule cells against Fe2+-induced oxidation (TBARS); assay type: cell-based; details: Rattus norvegicus, 0.75 h, read-out: TBARS IC50
Description: (§1) 3. Protection of cerebellar granule cells against oxidative damage
(§2) The cyclic nitrones were tested for their ability to protect primary cultures of cerebellar granule cells against oxidative injury induced by treatment with Fe^2+. Cerebellar granule cell cultures were prepared from 8 day old rats as previously described. […] Briefly, 8-10 cerebella were removed and placed in a Krebs-Ringer bicarbonate medium supplemented with BSA and MgSO4. Cerebella were finely chopped and digested with a trypsin/Krebs-Ringer solution. Cells were then dispersed by trituration in Krebs-Ringer containing DNase, MgSO4 and trypsin inhibitor followed by plating at a density of 1×10^6 cells/well in poly-l-lysine coated plate in MEM/10% fetal bovine serum/KCl/glutamine/gentamicin. Media was replaced at 24 hours and cytosine arabinoside added. Experiments were conducted with cells 8-10 days in vitro.
(§3) The nitrones were added in either Locke's solution or in 20% β-cyclodextrins and allowed to incorporate into the cells for 30 min. At this time 20 μl of a 5 mM stock solution of ferrous chloride was added for a final concentration of 100 μM. After 45 min the media was removed and added to 1.5 ml of TBA/TCA (2:1) with 25 μl of 2% BHT and TBARS determined as described above. The absorbance of the control cells (no iron) was subtracted from the iron treated cells and this value taken as the denominator to determine the concentration of nitrone required to inhibit oxidation by 50%.

[2] = system: neuronal cell loss and neurologic deficits; details: stroke, gerbil model; cited from earlier work
[3] = system: endotoxin associated mortality; details: rats; cited from earlier work
[4] = ESR spectroscopy, gerbils; cited from earlier work
Cerebellar Granule Cells [5] = test: Protection of cerebellar granule cells against Fe2+-induced damage (viability, MTT); assay type: cell-based; details: Rattus norvegicus, read-out: Viability IC50
Description: as §1, §2, §3
Fresh MEM media was added to the cells along with 100 μl of MTT. After 4 hrs, 1 ml of cold isopropanol/0.04 N HCl was added, the cells scraped, mixed well and transferred to 13×100 mm glass test tubes. The absorbance resulting from mitochondrial reduction of the MTT (570 nm minus 630 nm) was measured as an assessment of viability. The % cell death was determined by comparison to the absorbance of cells to which no iron was added.

[6] = compared with PBN; cited from earlier work
[7] = compared with PBN; cited from earlier work; remark: listed apart in the source
[8] = OH radical trapping (inhibition of the bleaching of p-NDA, primary assay); assay type: biochemical; details: for IC50: IC50, Fenton chemistry (Fe2+/H2O2), pH 7.0
Description: 2. Assessment as .OH Traps
A. Inhibition of the bleaching of p-NDA
Cyclic nitrones were evaluated for .OH trapping activity by a variety of tests. The primary assay was dependent upon the ability of the compounds to inhibit the .OH-dependent bleaching of p-NDA. Bors, W., Michel, C., and Saran, M. (1979) J. Biochem. 95, 621-627. The p-NDA was prepared at 1 mM in 50 mM NaCl, pH 7.0. The hydroxyl radical was generated using Fenton chemistry (Fe^2+ /H2 O2). FeCl2 is dissolved in N2 purged, double distilled […] to a final concentration of 2.5 mM. H2 O2 was prepared from a 30% stock solution (8.8 M) at 1.25 mM in the buffer. Test compounds were solubilized in buffer or ethanol at a concentration of 1 M or 5 M, depending upon solubility.
Assay mixtures in glass cuvettes contained solutions of 0.02 ml of H2 O2, 0.02 ml of test compound, 0.10 ml of p-NDA and 50 mM NaCl, pH 7.0 to a final volume of 0.98 ml. The oxidation was initiated by the addition of 0.02 ml of Fe^2+ and the bleaching of p-NDA was monitored as the loss in absorbance at 440 nm for 100 sec. To generate concentration curves, serial dilutions of the test compounds were made such that a constant volume of 0.02 ml was added to the reaction mixture. Ethanol itself is an .OH trap, thus controls contained an equal volume of ethanol for any test compound requiring this vehicle. The IC50 values for the nitrones were determined by GraphPad InPlot 4 and represent the amount of spin trap required to inhibit the bleaching of p-NDA by 50%.

[9] = Inhibition of lipid peroxidation (soybean phosphatidylcholine liposomes); assay type: biochemical; details: Fe2+-initiated, 37° C., 15 min time point, TBARS, read-out: LIPID OX (IC50)
Description: 1. Inhibition of lipid peroxidation
For determination of the ability to inhibit lipid peroxidation, liposomes were prepared from soybean phosphatidylcholine by ethanol injection. An aliquot of phosphatidylcholine was dried in a small glass vial under N2. The lipid was resolubilized in ethanol at a volume of 10 ml per ml of liposomes. Typically, 8 ml volumes of liposomes were prepared per tube and then all preparations were combined to provide a homogenous mixture for the assay. The ethanol containing the lipid was taken up in a Hamilton syringe and injected into the appropriate volume of 50 mM NaCl/10 mM Tris, pH 7.0 at 37° C. with mixing to achieve a final lipid concentration of 0.563 mM.
The liposomes were added to 25 ml beakers in a Dubnoff metabolic shaker at 37° C. To the liposomes were added the test compound (in ethanol or buffer), histidine-FeCl3 250:[…] final), FeCl2 ([…] final, prepared in N2 purged water) and sufficient buffer to achieve a final lipid concentration of 0.5 mM. Oxidations were initiated by the addition of Fe^2^+ and carried out under an air atmosphere with shaking. One ml aliquots were removed at 0,2,4,6,8,10,12 and 15 min and added to 2 ml of 0.67% thiobarbituric acid : 10% trichloroacetic acid (2:1) in 0.25 N HCl containing 0.05 ml of 2% BHT to terminate oxidation. Thomas, C. E., McLean, L. R., Parker, R. A., and Ohlweiler, D. F. (1992) Lipids 27, 543-550.
The samples were heated at 100° C. for 20 min in 13 x 100 mm borosilicate glass tubes covered with marbles to prevent evaporation. After cooling, the tubes were centrifuged at 3,000 rpm for 10 min and the absorbance of the resultant supernatant read at 532 nm-580 nm. Quantitation of thiobarbituric acid reactive substances (TBARS) was determined by comparison to a standard curve of malondialdehyde equivalents generated by acid catalyzed hydrolysis of 1,1,3,3-tetraethoxypropane. The IC50 was determined using the 15 min time point with the computer program GraphPad INPLOT 4. This program uses a nonlinear regression with sigmoidal curve on a semilogarithmic scale.

Solubility = assay type: physicochemical; details: for water solubility: noted during work-up
loss of cell viability = details: prior administration for vitamin E; cited from earlier work
ischemia-induced damage = details: vitamin E supplementation; cited from earlier work
Sedation in rats = assay type: in vivo
[10] = Duration of in vivo activity of compound A; parameters: species or system rats; details: relative to the sedative effect
[11] = Metabolites of A isolated from an in vivo experiment; details: relative to Metabolite 2
Source text: Indeed, from the onset, a primary goal has been to find a potent antioxidant which lacks this side effect observed with compound A. In this regard, the following observations were of special interest. […] In order to investigate this possibility, the major metabolite C and a minor, possibly secondary, metabolite (Metabolite 2) were isolated from an in vivo experiment, purified by HPLC, and assigned the structures shown below (FIG. 3). [drawing 16]

[12] = Fe2+-induced damage, 100 μM ferrous chloride, 45 min
[13] = Fe2+-induced damage, MTT reduction

Row | IC50 [9] [µM] | SMILES | IC50 (Cerebellar Granule Cells [1]; [12]) [µM] | IC50 (Cerebellar Granule Cells [5]; [13]) [µM] | also measured
1 | – | CC(C)(C)[N+]([O-])=Cc1ccccc1 [PBN, alpha-phenyl-tert-butyl nitrone] | – | – | IC50 (Cerebellar Granule Cells [1]): 2600 µM; effect on neuronal cell loss and neurologic deficits [2]: can significantly ameliorate neuronal cell loss and neurologic deficits; reduction of endotoxin associated mortality [3]: reduce endotoxin associated mortality in rats; trapping of lipid-derived radicals in cortical tissue [4]: trap lipid-derived radicals in cortical tissue; IC50 (Cerebellar Granule Cells [5]): 2600 µM
2 | – | [O-][N+]1=Cc2ccccc2CC12CCCCC2 [B, spiro [cyclohexane-1,3']3,4-dihydroisoquinoline N-oxide, reference compound] | – | – | inhibition of lipid oxidation relative to PBN [6]: more potent inhibitors of lipid oxidation; hydroxyl radical trapping relative to PBN [7]: better hydroxyl radical traps
3 | 1590 | CC1(C)Cc2sccc2C=[N+]1[O-] [Compound 48, 6,6-Dimethyl-6,7-dihydrothieno[3,2-c]pyridine N-oxide] | – | – | IC50 [8]: 14400 µM
4 | 100 | CC1(C)Cc2c(ccc3ccccc23)C=[N+]1[O-] [Compound 9, 2,2-Dimethyl-1,2-dihydrobenzo[f]isoquinoline N-oxide] | – | – | solubility (Solubility; reason for OH radical trapping not measured): low solubility
5 | – | Cc1c(C)c2c(c(C)c1O)CCC(C)(CCCC(C)CCCC(C)CCCC(C)C)O2 (stereo not drawn) [vitamin E, α-tocopherol] | – | – | protection against loss of cell viability (loss of cell viability): partial protection; protective effect against ischemia-induced damage (ischemia-induced damage): some protective effect
6 | – | Cc1cc2c(c(C)c1O)CC(C)(C)[N+]([O-])=C2 [Compound 15, 3,3,5,7-Tetramethyl-3,4-dihydroisoquinolin-6-ol N-oxide] | 220 | 190 | –
7 | – | O=C1c2ccccc2C=[N+]([O-])C12CCCC2 [G, 3H-isoquinolin-4-one-3-spirocyclopentane, N-oxide] | 102 | 105 | –
8 | 1070 | CC1(C)Cc2ccoc2C=[N+]1[O-] [Compound 53, 5,5-Dimethyl-4,5-dihydrofuro[2,3-c]pyridine N-oxide] | – | – | OH RADICAL TRAPPING (effect) ([8]; at 20 mM): no effect
9 | 69 | CC1(C)Cc2ccc3ccccc3c2C=[N+]1[O-] [Compound 10, 3,3-Dimethyl-3,4-dihydrobenzo[h]isoquinoline N-oxide] | – | – | –
10 | – | CC1(C)C(=O)c2ccccc2C=[N+]1[O-] [Compound 77, 3,3-Dimethyl-3H-isoquinolin-4-one, N-oxide] | 830 | 385 | –
11 | 1720 | CC1(C)Cc2ccsc2C=[N+]1[O-] [Compound 13, 5,5-Dimethyl-4,5-dihydrothieno[2,3-c]pyridine N-oxide] | – | – | IC50 [8]: 4340 µM
12 | – | [O-][N+]1=Cc2ccccc2C(O)C12CCCC2 (centres unmarked) [F, 3,4-dihydroisoquinolin-4-ol-3-spirocyclopentane, N-oxide] | 771 | 817 | –
13 | – | O=C1c2ccccc2C=[N+]([O-])C12CCCCC2 [E, 3H-isoquinolin-4-one-3-spirocyclohexane, N-oxide] | 37 | 39 | –
14 | 1670 | CC1(C)Cc2ccccc2C=[N+]1[O-] [A, 3,4-dihydro-3,3-dimethylisoquinoline N-oxide] | – | – | sedation (Sedation in rats; high doses in rats): causes sedation when administered in high doses in rats; time course of sedative effect (Sedation in rats; rats): peaks and declines rapidly; inhibition of lipid oxidation relative to PBN [6]: more potent inhibitors of lipid oxidation; IC50 [8]: 2830 µM; hydroxyl radical trapping relative to PBN [7]: better hydroxyl radical traps; duration of in vivo activity [10]: persists for a considerably longer period of time
15 | – | CC1(C)C(O)c2ccccc2C=[N+]1[O-] (centres unmarked) [C, 3,3-Dimethyl-3,4-dihydroisoquinolin-4-ol, N-oxide] | 1900 | 1550 | abundance of metabolite in vivo [11]: much more abundant in vivo than Metabolite 2; water solubility (Solubility): relatively high water solubility
16 | – | [O-][N+]1=Cc2ccccc2C(O)C12CCCCC2 (centres unmarked) [D, 3,4-dihydroisoquinolin-4-ol-3-spirocyclohexane, N-oxide] | 520 | 588 | –
17 | – | Cc1cc2c(c(C)c1O)CC(C)(C)N=C2 [Compound 38, 3,3,5,7-Tetramethyl-3,4-dihydroisoquinolin-6-ol] | – | – | water solubility (Solubility): high water solubility
18 | – | CC(=O)OC1c2ccccc2C=[N+]([O-])C1(C)C (centres unmarked) [Compound 76, 4-Acetoxy-3,3-dimethyl-3,4-dihydroisoquinoline, N-oxide] | 839 | 864 | –
